The values below come from patent US20240270751A1, “Pyrazolopyridinone Compounds” (BeiGene Ltd., priority 2021, published 2024).

Where only a bound is given, the exact number is not on record here.

For one experiment, the target named is DGKζ (Homo sapiens (Human), UniProt Q13574). Put plainly: Biochemical DGK IC50 assay, DGKζ ADP-Glo assay. The note with it: 0.5 nM enzyme, 140 μM ATP, 80 μM DAG; read-out: DGKζ ADP-Glo assay IC50. Summed up:
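Full-length human DGKζ, His-TEV tagged and purified from baculovirus-infected Sf9 cells, assayed by ADP-Glo with DAG/PS lipid micelle substrate prepared in 25 mM HEPES pH 7.0 with octyl glucoside. Final compound concentrations spanned 1.55–10000 nM or 23.3–150000 nM.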

The target of the next experiment is DGKα (Homo sapiens (Human), UniProt P23743). Nature of the experiment: Biochemical DGK IC50 assay, DGKα ADP-Glo assay. The note with it: 7.5 nM enzyme, 140 μM ATP, 80 μM DAG. Summed up:
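ADP-Glo read-out with full-length DGKα on DAG/PS lipid micelle substrate in 25 mM HEPES pH 7.0, 0.5 mM EDTA, 160 mM octyl β-D-glucopyranoside. Compound final concentrations spanned 1.55˜10000 nM or 23.3˜150000 nM.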

Sequence of DGKζ (Q13574 other isoform, or with tags, fused parts or gaps): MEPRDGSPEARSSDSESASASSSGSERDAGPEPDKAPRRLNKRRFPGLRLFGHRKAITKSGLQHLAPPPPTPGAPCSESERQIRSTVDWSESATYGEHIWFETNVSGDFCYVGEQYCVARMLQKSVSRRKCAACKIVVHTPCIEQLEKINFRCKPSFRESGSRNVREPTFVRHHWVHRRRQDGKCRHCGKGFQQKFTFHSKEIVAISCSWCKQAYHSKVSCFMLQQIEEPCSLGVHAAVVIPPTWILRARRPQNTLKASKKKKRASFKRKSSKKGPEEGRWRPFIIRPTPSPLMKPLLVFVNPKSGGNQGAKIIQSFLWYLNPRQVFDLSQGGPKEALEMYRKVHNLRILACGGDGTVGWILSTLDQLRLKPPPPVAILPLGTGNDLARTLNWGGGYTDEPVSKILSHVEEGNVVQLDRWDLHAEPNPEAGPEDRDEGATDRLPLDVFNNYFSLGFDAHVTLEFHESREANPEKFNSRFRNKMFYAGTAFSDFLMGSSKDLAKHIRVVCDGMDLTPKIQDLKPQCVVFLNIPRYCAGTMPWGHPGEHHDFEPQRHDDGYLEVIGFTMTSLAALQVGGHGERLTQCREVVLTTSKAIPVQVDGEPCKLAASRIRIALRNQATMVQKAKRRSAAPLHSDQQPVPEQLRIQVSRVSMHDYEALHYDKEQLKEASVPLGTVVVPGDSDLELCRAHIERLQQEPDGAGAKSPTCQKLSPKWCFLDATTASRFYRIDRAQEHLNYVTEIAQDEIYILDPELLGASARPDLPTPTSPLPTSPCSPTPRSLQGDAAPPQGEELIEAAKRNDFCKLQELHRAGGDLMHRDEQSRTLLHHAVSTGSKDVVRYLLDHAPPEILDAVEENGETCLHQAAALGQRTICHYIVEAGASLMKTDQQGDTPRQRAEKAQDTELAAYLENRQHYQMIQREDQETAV
Sequence of DGKα (P23743 whole entry): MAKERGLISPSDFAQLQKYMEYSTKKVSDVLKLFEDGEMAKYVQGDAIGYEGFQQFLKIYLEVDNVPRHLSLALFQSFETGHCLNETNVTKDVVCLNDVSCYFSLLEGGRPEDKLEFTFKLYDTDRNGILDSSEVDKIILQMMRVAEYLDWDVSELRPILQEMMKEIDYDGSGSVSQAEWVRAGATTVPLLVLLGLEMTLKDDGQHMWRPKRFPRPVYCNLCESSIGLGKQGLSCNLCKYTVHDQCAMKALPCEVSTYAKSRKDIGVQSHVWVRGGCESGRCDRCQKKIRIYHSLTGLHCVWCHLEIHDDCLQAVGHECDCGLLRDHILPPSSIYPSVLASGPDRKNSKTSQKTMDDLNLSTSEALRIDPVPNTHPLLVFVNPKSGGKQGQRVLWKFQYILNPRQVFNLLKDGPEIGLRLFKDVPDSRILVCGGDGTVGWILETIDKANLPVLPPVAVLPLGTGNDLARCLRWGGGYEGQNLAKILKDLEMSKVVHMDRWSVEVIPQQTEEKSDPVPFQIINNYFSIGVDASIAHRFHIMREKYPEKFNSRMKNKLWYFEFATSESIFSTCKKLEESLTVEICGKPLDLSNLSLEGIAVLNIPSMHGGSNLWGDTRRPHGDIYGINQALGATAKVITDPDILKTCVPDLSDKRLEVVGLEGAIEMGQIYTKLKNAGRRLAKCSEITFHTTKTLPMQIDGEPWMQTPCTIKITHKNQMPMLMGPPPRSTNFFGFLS

For `CC[C@H]1CN(C(C)c2ccc(F)cc2OCCOC)[C@H](CC)CN1c1cc(=O)n(C)c2cn(CC#N)nc12` (stereo partly drawn) [Compound A85], the IC50 on DGKζ amounted to 1180 nM; on DGKα, 5280 nM.

On to `CC(c1ccc2ncc(Cl)nc2c1)N1C[C@H](C)N(c2cc(=O)n(C)c3cn(CC#N)nc23)C[C@H]1C` (stereo partly drawn) [Compound A280, 2-(7-((2S,5R)-4-(1-(3-chloroquinoxalin-6-yl)ethyl)-2,5-dimethylpiperazin-1-yl)-4-methyl-5-oxo-4,5-dihydro-2H-pyrazolo[4,3-b]pyridin-2-yl)acetonitrile], for which the IC50 was 34 nM on DGKζ and 26000 nM at DGKα.

For the compound `CC[C@H]1CN([C@H](C)c2nc3ncccc3n2CC)[C@H](CC)CN1c1cc(=O)n(C)c2cn(CC#N)nc12` (single isomer, unassigned) [Compound A215a], the IC50 on DGKζ and on DGKα was over 10000 nM throughout.

`Cc1cnc2ccc([C@H](C)N3C[C@H](C)N(c4c(F)c(=O)n(C)c5cn(CC#N)nc45)C[C@H]3C)cc2n1` [Compound A317, 2-(7-((2S,5R)-2,5-dimethyl-4-((S)-1-(3-methylquinoxalin-6-yl)ethyl)piperazin-1-yl)-6-fluoro-4-methyl-5-oxo-4,5-dihydro-2H-pyrazolo[4,3-b]pyridin-2-yl)acetonitrile]: the IC50 is 21 nM at DGKζ and 8650 nM against DGKα.

As to `CC[C@H]1CN(C(C)c2ccc(F)cc2C#N)[C@H](CC)CN1c1cc(=O)n(C)c2cn(CC#N)nc12` (single isomer, unassigned) [Compound A224b], the IC50 at DGKζ is 4940 nM; at DGKα, 4150 nM.

Take `CC[C@H]1CN(C(C)c2ccccc2C(F)(F)F)[C@H](CC)CN1c1cc(=O)n(C)c2cn(CC#N)nc12` (single isomer, unassigned) [Compound A197a]: the IC50 at DGKζ is 2050 nM; on DGKα, over 10000 nM.

As for `CC(c1ccc2nccnc2c1)N1C[C@H](C)N(c2cc(=O)n(C)c3cn(CCN(C)C)nc23)C[C@H]1C` (stereo partly drawn) [Compound A11], the IC50 at DGKζ and against DGKα was over 150000 nM in each case.

For the compound `CC[C@H]1CN(C(C)c2ccc(OCC3COC3)cc2)[C@H](CC)CN1c1cc(=O)n(C)c2cn(CC#N)nc12` (stereo partly drawn) [Compound A379], the IC50 on DGKζ was determined as 571 nM; at DGKα, 294 nM.

In the case of `C[C@@H]1CN(c2cc(=O)n(C)c3c(F)nn(CC#N)c23)[C@@H](C)CN1[C@H](C)c1ccc2nccnc2c1` [Compound A258, 2-(7-((2S,5R)-2,5-dimethyl-4-((R)-1-(quinoxalin-6-yl)ethyl)piperazin-1-yl)-3-fluoro-4-methyl-5-oxo-4,5-dihydro-1H-pyrazolo[4,3-b]pyridin-1-yl)acetonitrile, or 2-(7-((2S,5R)-2,5-dimethyl-4-((S)-1-(quinoxalin-6-yl)ethyl)piperazin-1-yl)-3-fluoro-4-methyl-5-oxo-4,5-dihydro-1H-pyrazolo[4,3-b]pyridin-1-yl)acetonitrile], the IC50 on DGKζ and against DGKα was over 10000 nM in each case.

With `CC[C@H]1CN(C(C)c2cccc3c2OC(F)(F)O3)[C@H](CC)CN1c1cc(=O)n(C)c2cn(CC#N)nc12` (stereo partly drawn) [Compound A66], the IC50 on DGKζ was found to be 409 nM; on DGKα it was 9840 nM.

Take `CC(c1ccc2nccnc2c1)N1C[C@H](C)N(c2cc(=O)n(C)c3cn(CC4CO4)nc23)C[C@H]1C` (stereo partly drawn) [Compound A12]: the IC50 at DGKζ is 2200 nM; against DGKα, over 150000 nM.

In the case of `CC[C@H]1CN(C(C)c2nc3cccnc3n2CC)[C@H](CC)CN1c1cc(=O)n(C)c2cn(CC#N)nc12` (single isomer, unassigned) [Compound A185a], the IC50 at DGKζ and at DGKα was over 10000 nM in each case.

Turning to `CC[C@H]1CN(C(C)c2cnn(CC)c2C(F)(F)F)[C@H](CC)CN1c1cc(=O)n(C)c2cn(CC#N)nc12` (single isomer, unassigned) [Compound A119b], the IC50 at DGKζ stood at 964 nM; on DGKα, 4560 nM.

As to `CC[C@H]1CN(C(C)c2ccccc2C(F)(F)F)[C@H](CC)CN1c1cc(=O)n(C)c2cn(CC#N)nc12` (single isomer, unassigned) [Compound A197b], the IC50 on DGKζ was 169 nM; against DGKα, over 10000 nM.

`CC[C@H]1CN(C(C)c2cncn2CC(F)F)[C@H](CC)CN1c1cc(=O)n(C)c2cn(CC#N)nc12` (stereo partly drawn) [Compound A237]: the IC50 on DGKζ was 1350 nM; at DGKα, over 10000 nM.

For the compound `CC[C@H]1CN(C(C)c2ccc(C(F)(F)F)cc2OC)[C@H](CC)CN1c1cc(=O)n(C)c2cn(CC#N)nc12` (stereo partly drawn) [Compound A157], the IC50 was 1030 nM on DGKζ and 2990 nM against DGKα.

For `CC#CCn1cc2c(n1)c(N1C[C@@H](C)N(C(C)c3ccc4c(c3)OC(C)(C)O4)C[C@@H]1C)cc(=O)n2C` (stereo partly drawn) [Compound A390, 2-(but-2-yn-1-yl)-7-((2S,5R)-4-(1-(2,2-dimethylbenzo[d][1,3]dioxol-5-yl)ethyl)-2,5-dimethylpiperazin-1-yl)-4-methyl-2,4-dihydro-5H-pyrazolo[4,3-b]pyridin-5-one], the values for the IC50 at DGKζ and against DGKα were 490 nM and 4580 nM, respectively.

As for `CC[C@H]1CN(C(C)c2ccc(OC(F)F)nc2)[C@H](CC)CN1c1cc(=O)n(C)c2cn(CC#N)nc12` (single isomer, unassigned) [Compound A180a], the IC50 at DGKζ was 15 nM; on DGKα it was 730 nM.

Consider `CC[C@H]1CN(C(C)c2ccc(F)cc2OC)[C@H](CC)CN1c1cc(=O)n(C)c2cn(CC#N)nc12` (single isomer, unassigned) [Compound A71a], for which the IC50 amounted to 2100 nM at DGKζ and 42000 nM at DGKα.

On to `Cc1cnc2cc([C@H](C)N3C[C@H](C)N(c4cc(=O)n(C)c5cn(CC#N)nc45)C[C@H]3C)ccc2n1` (single isomer, unassigned) [Compound A269a, 2-(7-((2S,5R)-2,5-dimethyl-4-((S)-1-(2-methylquinoxalin-6-yl)ethyl)piperazin-1-yl)-4-methyl-5-oxo-4,5-dihydro-2H-pyrazolo[4,3-b]pyridin-2-yl)acetonitrile, or 2-(7-((2S,5R)-2,5-dimethyl-4-((R)-1-(2-methylquinoxalin-6-yl)ethyl)piperazin-1-yl)-4-methyl-5-oxo-4,5-dihydro-2H-pyrazolo[4,3-b]pyridin-2-yl)acetonitrile], for which the figures for the IC50 on DGKζ and on DGKα were 365 nM and over 10000 nM, respectively.

Regarding `CC(c1ccc2nccnc2c1)N1C[C@H](C)N(c2cc(=O)n(C)c3cn(CC(N)=O)nc23)C[C@H]1C` (stereo partly drawn) [Compound A6], the IC50 at DGKζ and on DGKα was over 150000 nM each time.

Take `CC[C@H]1CN(C(C)c2c(F)cccc2F)[C@H](CC)CN1c1cc(=O)n(C)c2cn(CC#N)nc12` (stereo partly drawn) [Compound A83]: the IC50 stood at 170 nM on DGKζ and 81 nM at DGKα.

Consider `CC[C@H]1CN(C(C)c2ncc(Cl)n2CC)[C@H](CC)CN1c1cc(=O)n(C)c2cn(CC#N)nc12` (single isomer, unassigned) [Compound A187b], for which the figures for the IC50 at DGKζ and at DGKα were 199 nM and 6320 nM, respectively.

Regarding `CC[C@H]1CN(C(C)c2ccc(F)nc2)[C@H](CC)CN1c1cc(=O)n(C)c2cn(CC#N)nc12` (single isomer, unassigned) [Compound A353b], the IC50 was 2490 nM on DGKζ and 797 nM against DGKα.
